Values of other authors in US4199515A (priority 1978, dated 1980).

Tested on: gram-positive bacteria
Details: background statement

For `CO[C@@H]1[C@H](C)[C@H]([C@]2(C)CC[C@H]([C@]3(C)CC[C@]4(C[C@H](OC)[C@@H](C)[C@@H]([C@@H](C)[C@H]5O[C@@](O)([C@H](C)C(=O)O)[C@H](C)[C@@H](OC)[C@H]5C)O4)O3)O2)O[C@H]1[C@H]1O[C@](C)(O)[C@H](C)[C@@H](OC)[C@@H]1C` [Lonomycin], which “activity to gram positive bacteria” value is on record?
The value was “activity to gram positive bacteria”.
